Test results taken from ChEMBL document CHEMBL3817778, “Small molecules targeting Mcl-1: the search for a silver bullet in cancer therapy” (Medchemcomm, 2016).
pIC50, pKi: −log10 of the molar value. Blank lines part the entries; values can stand above or below the molecule they belong to.

Experiments:
[1] = target: T1, Apoptosis regulator Bcl-2 (Homo sapiens, UniProt P10415); assay: Inhibition of FAM-labeled Bid BH3 peptide binding to recombinant human N-terminal GST-tagged BCL2 (1 to 34/ 92 to 207 residues) fused with human Bcl-XL expressed in Escherichia coli BL21(DE3) cells preincubated for 30 mins followed by FAM-labeled Bid BH3 peptide addition measured after 20 mins by fluorescence polarization assay
T1 sequence (P10415 whole entry, the tested form may be a part): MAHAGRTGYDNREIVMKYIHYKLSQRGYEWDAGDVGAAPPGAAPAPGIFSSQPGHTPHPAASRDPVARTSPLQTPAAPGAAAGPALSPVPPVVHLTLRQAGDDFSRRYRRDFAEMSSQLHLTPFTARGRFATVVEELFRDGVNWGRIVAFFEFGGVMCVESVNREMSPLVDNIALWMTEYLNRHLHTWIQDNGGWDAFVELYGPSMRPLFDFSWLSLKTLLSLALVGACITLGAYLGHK

[2] = Inhibition of FAM-labeled Bid BH3 peptide binding to recombinant N-terminal His8-tagged human MCL1 (209 to 327 residues)/mouse MCL1 (152 to189 residues) expressed in Escherichia coli BL21(DE3) cells preincubated for 30 mins followed by FAM-labeled Bid BH3 peptide addition measured after 20 mins by fluorescence polarization assay
Bcl-2-like protein 1 = Bcl-2-like protein 1 (Homo sapiens, UniProt Q07817); assay: Inhibition of FAM-labeled Bim BH3 peptide binding to recombinant human N-terminal GST-tagged Bcl-XL (1 to 212 residues) expressed in Escherichia coli BL21(DE3) cells preincubated for 30 mins followed by FAM-labeled Bim BH3 peptide addition measured after 20 mins by fluorescence polarization assay
Sequence of Bcl-2-like protein 1 (Q07817 whole entry, the tested form may be a part): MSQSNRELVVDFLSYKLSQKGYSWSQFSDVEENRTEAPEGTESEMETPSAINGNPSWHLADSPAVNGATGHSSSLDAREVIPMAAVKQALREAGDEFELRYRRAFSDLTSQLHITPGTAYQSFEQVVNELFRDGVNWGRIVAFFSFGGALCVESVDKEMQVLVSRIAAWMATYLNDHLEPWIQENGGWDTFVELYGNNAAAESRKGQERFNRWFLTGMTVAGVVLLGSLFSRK

[3] = target: T2, Induced myeloid leukemia cell differentiation protein Mcl-1 (Homo sapiens, UniProt Q07820); assay: Inhibition of FAM-labeled Bid BH3 peptide binding to human recombinant MCL1 by fluorescence polarization assay relative to control
T2 sequence (Q07820 whole entry): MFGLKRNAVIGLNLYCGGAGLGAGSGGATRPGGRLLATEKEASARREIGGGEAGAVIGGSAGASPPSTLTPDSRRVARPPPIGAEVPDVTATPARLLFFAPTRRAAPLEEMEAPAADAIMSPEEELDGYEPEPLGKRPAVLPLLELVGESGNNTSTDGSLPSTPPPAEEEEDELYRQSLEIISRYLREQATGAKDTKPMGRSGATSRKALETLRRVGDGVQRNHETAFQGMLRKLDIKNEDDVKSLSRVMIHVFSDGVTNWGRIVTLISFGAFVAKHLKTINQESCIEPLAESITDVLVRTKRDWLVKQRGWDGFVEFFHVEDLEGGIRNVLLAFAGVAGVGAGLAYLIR

[4] = target: T1, Apoptosis regulator Bcl-2; assay: Inhibition of FAM-labeled Bid BH3 peptide binding to human recombinant BCL2 by fluorescence polarization assay relative to control
[5] = target: T2, Induced myeloid leukemia cell differentiation protein Mcl-1; assay: Inhibition of fluorescein-labeled Bid BH3 peptide (79 to 99 residues) binding to His-tagged MCL1 (171 to 327 residues) (unknown origin) expressed in Escherichia coli Bl21(DE3) cells incubated for 3 hrs by fluorescence polarization assay
[6] = Inhibition of FITC-labeled Bid BH3 peptide binding to GST-tagged MCL1 harboring N-terminal and C-terminal point mutant (unknown origin) expressed in Escherichia coli Bl21(DE3) cells by fluorescence polarization assay; parameters: species or system Homo sapiens
[7] = target: T2, Induced myeloid leukemia cell differentiation protein Mcl-1; assay: Inhibition of 5-FAM-labeled Bid BH3 peptide binding to MCL1 (unknown origin) at 50 uM by fluorescence polarization assay relative to control
[8] = target: T2, Induced myeloid leukemia cell differentiation protein Mcl-1; assay: Inhibition of 5-FAM-labeled Bid BH3 peptide binding to MCL1 (unknown origin) by fluorescence polarization assay
[9] = target: T1, Apoptosis regulator Bcl-2; assay: Inhibition of FITC-labeled Bid BH3 peptide binding to human GST-tagged BCL2 lacking C-terminal transmembrane domain expressed in Escherichia coli XL-1 Blue cells preincubated for 10 mins followed by FITC-labeled Bid BH3 peptide addition measured after 20 mins by fluorescence polarization assay
[10] = target: T2, Induced myeloid leukemia cell differentiation protein Mcl-1; assay: Inhibition of FITC-labeled Bid BH3 peptide binding to human GST-tagged MCL1 lacking C-terminal transmembrane domain expressed in Escherichia coli XL-1 Blue cells preincubated for 10 mins followed by FITC-labeled Bid BH3 peptide addition measured after 20 mins by fluorescence polarization assay
MEF [11] = assay: Induction of apoptosis in MEF assessed as dead cells at 10 uM after 24 hrs by Annexin V/propidium iodide staining based method relative to control; format: functional, Mus musculus
MEF [12] = assay: Induction of apoptosis in […] double knock out MEF assessed as dead cells at 10 uM after 24 hrs by Annexin V/propidium iodide staining based method relative to control; format: functional, Mus musculus
[13] = target: T1, Apoptosis regulator Bcl-2; assay: Inhibition of FITC-labeled Bim BH3 peptide binding to GST-tagged BCL2 (unknown origin) preincubated for 2 mins followed by FITC-labeled Bim BH3 peptide addition measured after 10 mins by fluorescence polarization assay
[14] = target: T2, Induced myeloid leukemia cell differentiation protein Mcl-1; assay: Binding affinity to MCL1 (unknown origin) incubated for 30 mins by TR-FRET assay
[15] = target: Induced myeloid leukemia cell differentiation protein Mcl-1 homolog (Mus musculus, UniProt P97287); assay: Inhibition of biotinylated Bim BH3 peptide binding to recombinant GST-tagged mouse MCL1 with N-terminal truncation of 151 residues and C-terminal truncation of 23 residues expressed in Escherichia coli BL21(DE3) cells preincubated for 1 hr followed by biotinylated Bim BH3 peptide addition measured after 1 hr by ELISA
Sequence of Induced myeloid leukemia cell differentiation protein Mcl-1 homolog (P97287 whole entry, the tested form may be a part): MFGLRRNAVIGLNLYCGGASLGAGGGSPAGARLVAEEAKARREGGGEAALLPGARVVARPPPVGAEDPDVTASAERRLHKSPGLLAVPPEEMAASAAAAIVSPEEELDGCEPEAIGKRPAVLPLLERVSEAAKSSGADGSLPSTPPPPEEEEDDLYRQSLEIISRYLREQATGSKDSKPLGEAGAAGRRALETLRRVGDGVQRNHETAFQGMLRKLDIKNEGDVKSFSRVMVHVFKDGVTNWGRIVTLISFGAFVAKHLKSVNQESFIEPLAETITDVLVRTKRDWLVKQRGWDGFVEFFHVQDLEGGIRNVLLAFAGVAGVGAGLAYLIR

[16] = target: T2, Induced myeloid leukemia cell differentiation protein Mcl-1; assay: Inhibition of biotinylated Bim BH3 peptide binding to GST-tagged MCL1 (unknown origin) preincubated for 15 mins followed by biotinylated Bim BH3 peptide addition measured after 2 hrs by ELISA

pKi [1]: 6.28
pKi (Bcl-2-like protein 1): 7.77
SMILES: CCOC(=O)C1=C(C)N=c2s/c(=C\c3cn(Cc4ccc(-c5ccccc5)cc4)c4ccccc34)c(=O)n2C1c1ccccc1 (stereo not given)
pKi [2]: 6.70

pKi [3]: > 6.52
pKi [4]: > 6.52
SMILES: CC(C)c1ccccc1Cc1cc(C(=O)Nc2ccc(S(=O)(=O)c3ccccc3C(C)(C)C)cc2)c(O)c(O)c1O

pIC50 [5]: 6.77
SMILES: O=C(O)CSc1cc(NS(=O)(=O)c2ccc(-c3ccc(Cl)cc3)cc2)c2ccccc2c1O

pIC50 [5]: 6.77
SMILES: O=C(O)CSc1cc(NS(=O)(=O)c2ccc(-c3ccc(F)cc3F)cc2)c2ccccc2c1O

pIC50 [16]: 5.85
SMILES: O=C1c2ccc(OS(=O)(=O)C(F)(F)F)cc2Oc2c(Cl)cc(C(=O)c3ccccc3O)n2-c2c1[nH]c(Cl)c2Cl

Second part, the molecule before the results:

SMILES: O=C(O)CSc1cc(NS(=O)(=O)c2ccc(Oc3ccc(F)cc3)cc2)c2ccccc2c1O
pIC50 [5]: 6.77

SMILES: Cc1cs/c(=N\C2CCCCC2)n1/N=C/c1ccc(O)c(O)c1O
pIC50 [6]: 5.32

SMILES: O=C(Cc1cc(O)c(O)c(O)c1)NCc1ccc(C(=O)N2CCN(Cc3ccccc3-c3ccccc3)CC2)cc1
inhibition [7]: 66%
pKi [8]: 6.74

SMILES: COC1=CC(c2cc3ccccc3[nH]2)=N/C1=C\c1[nH]c(C)cc1C [OBATOCLAX]
pIC50 [9]: 5.95
pIC50 [10]: 5.54

SMILES: O=C(O)CSc1cc(NS(=O)(=O)c2ccc(Br)cc2)c2ccccc2c1O
pKi [5]: 5.73
Activity (MEF [11]): 60%
Activity (MEF [12]): 16%

SMILES: Cc1cc2c(C(C)C)c(O)c(O)cc2c(O)c1-c1c(C)cc2c(C(C)C)c(O)c(O)cc2c1O [APOGOSSYPOL]
pKi [13]: 5.55

SMILES: CC1(C)CCC(CN2CCN(c3ccc(C(=O)NS(=O)(=O)c4ccc(NCC5CCOCC5)c([N+](=O)[O-])c4)c(Oc4cnc5[nH]ccc5c4)c3)CC2)=C(c2ccc(Cl)cc2)C1 [VENETOCLAX]
pKi [14]: < 6.35

SMILES: O=C(c1ccccc1O)c1[nH]c(Cl)c(Cl)c1-n1c(C(=O)c2ccccc2O)cc(Cl)c1Cl
pIC50 [15]: 5.00
